# Experimental data from patent publication US8222278B2, “Treatment of attention-deficit/hyperactivity disorder” (Abbott Laboratories, priority 2008, dated 2012).
# Tests used:
# adults with ADHD [1] = experiment: Study A: ABT-894 Adult ADHD Dose-Ranging crossover clinical study, efficacy rating scales; assay type: in vivo, human; conditions: Atomoxetine 40 mg BID
# Procedure: (§1) A clinical study (Study A) was conducted to assess the safety and efficacy of ABT-894 compared to placebo in adults with ADHD and to evaluate the dose-response relationship.
# A total of 243 subjects aged 18 to 60 years old meeting DSM-IV-TR criteria for ADHD were randomized across the 5 dose groups. Male or female patients were included. […] The disposition of the study subjects is further discussed with the study results below.
# (§2) Subjects in each dose group received, in random order, both ABT-894 and placebo according to a 2×2 crossover design. Each treatment period was 4 weeks separated by a 2-week washout period.
# Each site was assigned to one of two cohorts (Cohort A or Cohort B) in approximately a 3:2 ratio. Subjects in Cohort A were randomized in equal proportions to one of 6 treatment sequences in 3 dose groups, and subjects in Cohort B were randomized in equal proportions to one of 4 treatment sequences in 2 dose groups, as shown in Table 1. Within each dose group subjects received either ABT-894 or atomoxetine in Period 1 and placebo in Period 2, or placebo in Period 1 and ABT-894 or atomoxetine in Period 2.
# The study medication was dispensed in the form of a capsule. Each capsule contained ABT-894, atomoxetine, or placebo. The capsules were made to look identical.
# The primary efficacy endpoint was the Conners' Adult ADHD Rating Scale—Investigator Rated (CAARS:Inv) Total Score (18 items) at the final evaluation of each 4-week treatment period. The CAARS:Inv was assessed at baseline and Days 7. 14. 21, and 28 of each period. Each CAARS:Inv item was rated on a 4-point scale of frequency of occurrence (0=not at all, never; 3=very much. very frequently) during the previous 7 days.
# (§3) Secondary efficacy endpoints included the CAARS:Inv Inattentive and Hyperactive/Impulsive Subscale Scores, Clinical Global Impression-ADHD-Severity Scale (CGI-ADHD-S). Adult ADHD Investigator Symptom Report Scale (AISRS), including total and subscales, and the Self-rated Connors Adult ADHD Rating Scale (CAARS-Self). Health outcomes including the Adult ADHD Quality of Life Scale (AAQoL) and Work Productivity and Activity Impairment Questionnaire (WPAI) were used to evaluate the validity of these scales in this study population for use in subsequent clinical trials.
# The primary analysis was performed on each dose group separately according to the Statistical Analysis Plan (SAP). The primary statistical model that was used for analyzing the primary efficacy variable, the CAARS:INV total score, and all other secondary efficacy variables was determined by a SAP specified testing procedure. The comparability between two sequences for a given dose group with respect to the difference between period-specific baselines was tested using a one-way ANCOVA with the term of treatment and the Period I baseline as the covariate at the significance level of 0.10. The equal residual effect from Period I to Period II between two different sequences for a given dose group was tested using a standard model for cross-over data analysis, Grizzle model, on the term of “sequence” at the significance level of 0.10.
# After the study blind was broken, across 5 dose groups. all the tests accepted the null hypothesis that there was no statistically significant treatment effect for the differences between the period-specific baselines. The tests also accepted the null hypothesis that there was no period residual effect in any of the dose groups. Accordingly, the Grizzle model was used as the primary analysis model to analyze treatment group difference for CAARS:INV total score at Day 28 for each dose group. The Grizzle Model was carried out by SAS PROC Mixed with the terms of study center. sequence, subjects within sequence, period, treatment, as well as period-specific baselines as covariates.
# The primary efficacy dataset included all subjects who completed both periods of the study (completers dataset). […]
# adults with ADHD [2] = experiment: Study A: patient-reported health outcomes (AAQoL, WPAI); assay type: in vivo, human; set-up: WPAI Absenteeism (employed), Mean Diff. / WPAI Impaired Work Effectiveness (employed), Mean Diff. / AAQoL Total, Mean Diff. / WPAI Overall Activity Impairment (all), Mean Diff. / WPAI Overall Work Impairment (employed), Mean Diff.: scale not given here; conditions: ATX 40 mg BID
# Procedure: as §1, §2, §3
# adults with ADHD [3] = experiment: Study A: weight and vital signs; assay type: in vivo, human; conditions: Atomoxetine 40 mg BID, final evaluation (LOCF)
# Procedure: The treatment group differences in vital signs were analyzed using a Grizzle Model similar to the model used for the efficacy analyses with the exclusion of period-specific baselines.
# adults with ADHD [4] = experiment: Study A: treatment-emergent adverse events (safety dataset); conditions: Atomoxetine 40 mg BID, N = 50
# Procedure: During each visit, blood pressure, heart rate, weight, medication accountability and tolerability, and adverse effects were assessed.
# The safety dataset consisted of all subjects who took at least one dose of study drug. The reasons for discontinuation and the treatment-emergent adverse events were summarized by the treatment under which the discontinuation or event was reported.
# Treatment-emergent adverse events were those that began or worsened following the first dose of study drug in Period 1. Adverse event monitoring was conducted at each study visit and until 30 days following discontinuation of study drug. Other routine safety assessments included vital signs, electrocardiograms, physical examinations, brief neurological examinations and laboratory tests.
structure (smiles),measurement,setting,value
"CNCC[C@@H](Oc1ccccc1C)c1ccccc1 [Atomoxetine, (3R)-N-methyl-3-(2-methylphenoxy)-3-phenyl-propan-1-amine, reference compound]","AISRS Hyperactivity Score, mean difference from placebo","adults with ADHD [1]; day 28, completers","−3.29 (−5.4, −1.2)"
same,"AISRS Inattention Score, mean difference from placebo","adults with ADHD [1]; day 28, completers","−3.81 (−6.1, −1.6)"
same,"AISRS Total Score, mean difference from placebo","adults with ADHD [1]; day 28, completers","−7.18 (−11.5, −2.9)"
same,"CAARS:Self ADHD Index, mean difference from placebo","adults with ADHD [1]; day 28, completers","−3.08 (−4.8, −1.3)"
same,"CAARS:Self Hyperactivity Score, mean difference from placebo","adults with ADHD [1]; day 28, completers","−1.43 (−2.4, −0.5)"
same,"CAARS:Self Impulsivity Score, mean difference from placebo","adults with ADHD [1]; day 28, completers","−1.17 (−1.9, −0.5)"
same,"CAARS:Self Inattention/Memory Score, mean difference from placebo","adults with ADHD [1]; day 28, completers","−1.56 (−2.5, −0.6)"
same,"CAARS:Self Problem with Self-concept Score, mean difference from placebo","adults with ADHD [1]; day 28, completers","−0.70 (−1.5, 0.1)"
same,"CAARS:Self Total Score, mean difference from placebo","adults with ADHD [1]; day 28, completers","−7.12 (−10.9, −3.3)"
same,"CGI-ADHD-S, mean difference from placebo","adults with ADHD [1]; day 28, completers","−0.45 (−0.8, −0.1)"
same,"CAARS:Inv ADHD Index, mean difference from placebo","adults with ADHD [1]; day 28, completers N = 40","−3.00 (−4.9, −1.1)"
same,"CAARS:Inv Hyperactive/Impulsive subscale score, mean difference from placebo","adults with ADHD [1]; day 28, completers N = 40","−1.43 (−2.4, −0.4)"
same,"CAARS:Inv Inattentive subscale score, mean difference from placebo","adults with ADHD [1]; day 28, completers N = 40",−3.89 (−6.3. −1.5)
same,"CAARS:Inv Total Score, mean difference from placebo","adults with ADHD [1]; day 28, completers N = 40",−7.98 (−12.5. −3.5)
same,"WPAI Absenteeism (employed), Mean Diff.",adults with ADHD [2]; N 18,0.019
same,"WPAI Impaired Work Effectiveness (employed), Mean Diff.",adults with ADHD [2]; N 18,−0.143
same,"WPAI Overall Work Impairment (employed), Mean Diff.",adults with ADHD [2]; N 18,−0.12
same,"WPAI Overall Activity Impairment (all), Mean Diff.",adults with ADHD [2]; N 36,−0.13
same,"AAQoL Total, Mean Diff.",adults with ADHD [2]; N 40,7.23
same,"Diastolic BP, mean difference from placebo",adults with ADHD [3],0.72 mm Hg
same,"Pulse, mean difference from placebo",adults with ADHD [3],4.74 bpm
same,"Systolic BP, mean difference from placebo",adults with ADHD [3],1.16 mm Hg
same,"Weight, mean difference from placebo",adults with ADHD [3],-0.73 kg
same,"Any Adverse Event, % of subjects",adults with ADHD [4],(82.0) %
same,"Any Adverse Event, number of subjects",adults with ADHD [4],41 subjects
same,"Decreased appetite, % of subjects",adults with ADHD [4],(12.0) %
same,"Decreased appetite, number of subjects",adults with ADHD [4],6 subjects
same,"Diarrhea, % of subjects",adults with ADHD [4],(2.0) %
same,"Diarrhea, number of subjects",adults with ADHD [4],1 subjects
same,"Dizziness, % of subjects",adults with ADHD [4],(8.0) %
same,"Dizziness, number of subjects",adults with ADHD [4],4 subjects
same,"Dry mouth, % of subjects",adults with ADHD [4],(6.0) %
same,"Dry mouth, number of subjects",adults with ADHD [4],3 subjects
same,"Fatigue, % of subjects",adults with ADHD [4],(12.0) %
same,"Fatigue, number of subjects",adults with ADHD [4],6 subjects
same,"Feeling hot and cold, % of subjects",adults with ADHD [4],(6.0) %
same,"Feeling hot and cold, number of subjects",adults with ADHD [4],3 subjects
same,"Feeling jittery, % of subjects",adults with ADHD [4],(6.0) %
same,"Feeling jittery, number of subjects",adults with ADHD [4],3 subjects
same,"Headache, % of subjects",adults with ADHD [4],(14.0) %
same,"Headache, number of subjects",adults with ADHD [4],7 subjects
same,"Influenza-like illness, % of subjects",adults with ADHD [4],(6.0) %
same,"Influenza-like illness, number of subjects",adults with ADHD [4],3 subjects
same,"Lethargy, % of subjects",adults with ADHD [4],(6.0) %
same,"Lethargy, number of subjects",adults with ADHD [4],3 subjects
same,"Muscle Strain, % of subjects",adults with ADHD [4],(0) %
same,"Muscle Strain, number of subjects",adults with ADHD [4],0 subjects
same,"Nasal congestion, % of subjects",adults with ADHD [4],(4.0) %
same,"Nasal congestion, number of subjects",adults with ADHD [4],2 subjects
same,"Nausea, % of subjects",adults with ADHD [4],(20.0) %
same,"Nausea, number of subjects",adults with ADHD [4],10 subjects
same,"Parathesia, % of subjects",adults with ADHD [4],(10.0) %
same,"Parathesia, number of subjects",adults with ADHD [4],5 subjects
same,"Sleep disturbances, % of subjects",adults with ADHD [4],(16.0) %
same,"Sleep disturbances, number of subjects",adults with ADHD [4],8 subjects
same,"Somnolence, % of subjects",adults with ADHD [4],(8.0) %
same,"Somnolence, number of subjects",adults with ADHD [4],4 subjects
same,"Upper RTI, % of subjects",adults with ADHD [4],(4.0) %
same,"Upper RTI, number of subjects",adults with ADHD [4],2 subjects
same,"Vomiting, % of subjects",adults with ADHD [4],(2.0) %
same,"Vomiting, number of subjects",adults with ADHD [4],1 subjects
